Consider eight compounds from PubChem BioAssay AID1259407 (Chemical Carcinogenesis Research Information System (CCRIS), 2018).

SMILES strings stand for the structures. The source made the active and inactive calls. No rule for the calls is given here.

The subject of the series is CCRIS mutagenicity, Ames/micronucleus/aberration tests. As to the kind of experiment: CCRIS mutagenicity studies.
The mark [1] stands for this setting: Test System: AMES SALMONELLA TYPHIMURIUM, Strain/Indicator: TA98, Metabolic Activation: NONE, Method: PREINCUBATION
Setting [2] is: Test System: AMES SALMONELLA TYPHIMURIUM, Strain/Indicator: TA100, Metabolic Activation: NONE, Method: PREINCUBATION
[3] abbreviates: Test System: AMES SALMONELLA TYPHIMURIUM, Strain/Indicator: TA1535, Metabolic Activation: NONE, Method: PREINCUBATION
[4] abbreviates: Test System: AMES SALMONELLA TYPHIMURIUM, Strain/Indicator: TA1537, Metabolic Activation: NONE, Method: PREINCUBATION

Take `NS(=O)(=O)c1cc2c(cc1Cl)NC=NS2(=O)=O`: the mutagenic call was “inactive; negative” (Test System: AMES SALMONELLA TYPHIMURIUM, Strain/Indicator: TA97, Metabolic Activation: HAMSTER, LIVER, S-9, AROCLOR 1254 (10 OR 30%), Method: PREINCUBATION); “inactive; negative” (Test System: AMES SALMONELLA TYPHIMURIUM, Strain/Indicator: TA97, Metabolic Activation: NONE, Method: PREINCUBATION); “inactive; negative” (Test System: AMES SALMONELLA TYPHIMURIUM, Strain/Indicator: TA97, Metabolic Activation: RAT, LIVER, S-9, AROCLOR 1254 (10 OR 30%), Method: PREINCUBATION); “inactive; negative” (Test System: AMES SALMONELLA TYPHIMURIUM, Strain/Indicator: TA98, Metabolic Activation: HAMSTER, LIVER, S-9, AROCLOR 1254 (10 OR 30%), Method: PREINCUBATION); “inactive; negative” under setting [1]; “inactive; negative” (Test System: AMES SALMONELLA TYPHIMURIUM, Strain/Indicator: TA98, Metabolic Activation: RAT, LIVER, S-9, AROCLOR 1254 (10 OR 30%), Method: PREINCUBATION). In addition, the mutagenic call by setting is: (Test System: AMES SALMONELLA TYPHIMURIUM, Strain/Indicator: TA100, Metabolic Activation: HAMSTER, LIVER, S-9, AROCLOR 1254 (10 OR 30%), Method: PREINCUBATION) “inactive; negative”; under setting [2], “inactive; negative”; (Test System: AMES SALMONELLA TYPHIMURIUM, Strain/Indicator: TA100, Metabolic Activation: RAT, LIVER, S-9, AROCLOR 1254 (10 OR 30%), Method: PREINCUBATION) “inactive; negative”; (Test System: AMES SALMONELLA TYPHIMURIUM, Strain/Indicator: TA1535, Metabolic Activation: HAMSTER, LIVER, S-9, AROCLOR 1254 (10 OR 30%), Method: PREINCUBATION) “inactive; negative”; under setting [3], “inactive; negative”; (Test System: AMES SALMONELLA TYPHIMURIUM, Strain/Indicator: TA1535, Metabolic Activation: RAT, LIVER, S-9, AROCLOR 1254 (10 OR 30%), Method: PREINCUBATION) “inactive; negative”. Moreover, the mutagenic call runs as follows: (Test System: AMES SALMONELLA TYPHIMURIUM, Strain/Indicator: TA1537, Metabolic Activation: HAMSTER, LIVER, S-9, AROCLOR 1254 (30%), Method: PREINCUBATION) “inactive; negative”; under setting [4], “inactive; negative”; (Test System: AMES SALMONELLA TYPHIMURIUM, Strain/Indicator: TA1537, Metabolic Activation: RAT, LIVER, S-9, AROCLOR 1254 (30%), Method: PREINCUBATION) “inactive; negative”.
As for `CCOC(=O)C[n+]1csc2ccccc21`, the mutagenic call (Test System: AMES SALMONELLA TYPHIMURIUM, Strain/Indicator: TA98, Metabolic Activation: NONE, Method: STANDARD PLATE) is “inactive; negative”; the mutagenic call (Test System: AMES SALMONELLA TYPHIMURIUM, Strain/Indicator: TA100, Metabolic Activation: NONE, Method: STANDARD PLATE) was “inactive; negative”; the mutagenic call (Test System: AMES SALMONELLA TYPHIMURIUM, Strain/Indicator: TA1535, Metabolic Activation: NONE, Method: STANDARD PLATE) is “inactive; negative”; the mutagenic call (Test System: E.COLI, Strain/Indicator: WP2, Metabolic Activation: NONE, Method: STANDARD PLATE) was “inactive; negative”; the mutagenic call (Test System: E.COLI, Strain/Indicator: WP2 UVRA, Metabolic Activation: NONE, Method: STANDARD PLATE) was “inactive; negative”.
Take `Nc1ccc2c(c1)C(=O)/C(=N/Nc1ccc(-c3ccc(N/N=C4/C(=O)c5c(N)cc(S(=O)(=O)O)cc5C=C4S(=O)(=O)O)cc3)cc1)C(S(=O)(=O)O)=C2`: the mutagenic call was “active; positive” (Test System: AMES SALMONELLA TYPHIMURIUM, Strain/Indicator: TA98, Metabolic Activation: HAMSTER, LIVER, S-9, AROCLOR 1254 (10%), Method: PREINCUBATION); “active; positive” under setting [1]; “inactive; negative” (Test System: AMES SALMONELLA TYPHIMURIUM, Strain/Indicator: TA98, Metabolic Activation: RAT, LIVER, S-9, AROCLOR 1254 (10%), Method: PREINCUBATION); “inactive; negative” (Test System: AMES SALMONELLA TYPHIMURIUM, Strain/Indicator: TA100, Metabolic Activation: HAMSTER, LIVER, S-9, AROCLOR 1254 (10%), Method: PREINCUBATION); “inactive; negative” under setting [2]; “inactive; negative” (Test System: AMES SALMONELLA TYPHIMURIUM, Strain/Indicator: TA100, Metabolic Activation: RAT, LIVER, S-9, AROCLOR 1254 (10%), Method: PREINCUBATION). Further, the mutagenic call (Test System: AMES SALMONELLA TYPHIMURIUM, Strain/Indicator: TA1535, Metabolic Activation: HAMSTER, LIVER, S-9, AROCLOR 1254 (10%), Method: PREINCUBATION) is “inactive; negative”; the mutagenic call under setting [3] is “inactive; negative”; the mutagenic call (Test System: AMES SALMONELLA TYPHIMURIUM, Strain/Indicator: TA1535, Metabolic Activation: RAT, LIVER, S-9, AROCLOR 1254 (10%), Method: PREINCUBATION) was “inactive; negative”; the mutagenic call (Test System: AMES SALMONELLA TYPHIMURIUM, Strain/Indicator: TA1537, Metabolic Activation: HAMSTER, LIVER, S-9, AROCLOR 1254 (10%), Method: PREINCUBATION) is “inactive; negative”; the mutagenic call under setting [4] is “active; positive”; the mutagenic call (Test System: AMES SALMONELLA TYPHIMURIUM, Strain/Indicator: TA1537, Metabolic Activation: RAT, LIVER, S-9, AROCLOR 1254 (10%), Method: PREINCUBATION) is “inactive; negative”.
With `OCC12OOC1(CO)c1ccccc1O2` (centres undefined), the mutagenic call under setting [2] is “inactive; negative”.
On to `Nc1cccc2nc3c(N)cccc3nc12`, for which the mutagenic call was “active; positive” under setting [1] and “inactive; negative” (Test System: AMES SALMONELLA TYPHIMURIUM, Strain/Indicator: TA98, Metabolic Activation: RAT, LIVER, S-9, PCB, Method: PREINCUBATION).
Consider `O[C@@H]1C=Cc2c(ccc3c2sc2ccccc23)[C@H]1O`, for which the mutagenic call (Test System: AMES SALMONELLA TYPHIMURIUM, Strain/Indicator: TA100, Metabolic Activation: RAT, LIVER, S-9, AROCLOR 1254, Method: PREINCUBATION) is “active; positive”.
As for `Nc1ccc2nc3ccccc3cc2c1`, the mutagenic call under setting [3] is “inactive; negative”; the mutagenic call (Test System: AMES SALMONELLA TYPHIMURIUM, Strain/Indicator: TA1535, Metabolic Activation: RAT, LIVER, S-9, TETRACHLOROBIPHENYL, Method: PREINCUBATION) was “active; positive”; the mutagenic call under setting [4] was “active; positive”; the mutagenic call (Test System: AMES SALMONELLA TYPHIMURIUM, Strain/Indicator: TA1537, Metabolic Activation: RAT, LIVER, S-9, TETRACHLOROBIPHENYL, Method: PREINCUBATION) is “active; positive”; the mutagenic call (Test System: AMES SALMONELLA TYPHIMURIUM, Strain/Indicator: TA1538, Metabolic Activation: NONE, Method: PREINCUBATION) is “inactive; negative”; the mutagenic call (Test System: AMES SALMONELLA TYPHIMURIUM, Strain/Indicator: TA1538, Metabolic Activation: RAT, LIVER, S-9, TETRACHLOROBIPHENYL, Method: PREINCUBATION) is “active; positive”. Moreover, the mutagenic call reads like this: (Test System: AMES SALMONELLA TYPHIMURIUM, Strain/Indicator: TA1975, Metabolic Activation: RAT, LIVER, S-9, TETRACHLOROBIPHENYL, Method: PREINCUBATION) “inactive; negative”; (Test System: AMES SALMONELLA TYPHIMURIUM, Strain/Indicator: TA1977, Metabolic Activation: NONE, Method: PREINCUBATION) “inactive; negative”; (Test System: AMES SALMONELLA TYPHIMURIUM, Strain/Indicator: TA1977, Metabolic Activation: RAT, LIVER, S-9, TETRACHLOROBIPHENYL, Method: PREINCUBATION) “active; positive”; (Test System: AMES SALMONELLA TYPHIMURIUM, Strain/Indicator: TA1978, Metabolic Activation: RAT, LIVER, S-9, TETRACHLOROBIPHENYL, Method: PREINCUBATION) “active; positive”.
On to `Cc1c2ccccc2cc2c3c(ccc12)C(O)C(O)[C@@H]1O[C@@H]31` (some centres undefined), for which the mutagenic call is “active; positive” under setting [1]; “active; positive” under setting [2]; “active; positive” (Test System: CHINESE HAMSTER V-79, Strain/Indicator: V-79/6-THIOGUANINE, Metabolic Activation: NONE).
